Data from patent publication US9499550B2 (BRISTOL-MYERS SQUIBB COMPANY, priority 2012, dated 2016).
Where two headings read alike, the source gives them in different places.

Key:
[1] = tested on: HCV genotype 1a (H77 strain) replicon in HUH-7 cells; test: HCV replicon luciferase reporter assay, genotype 1a; format: cell-based; details: Hepatitis C virus, Huh-7, 72 h, HCV genotype 1a replicon luciferase, 3 days incubation
How it was run: (§1)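 Replicon inhibition for both genotypes was measured as Renilla luciferase signal (EnduRen, 7.5 μM final, 2 h) after 3-day, 37° C exposure of replicon-bearing HUH-7 cells in 4% FCS DMEM, 0.5% DMSO. The 1b construct carries S1179I; the 1a H77 construct carries P1496L and S2204I. Twenty-point, 3-fold dilutions were fitted four-parametrically for EC50, and CC50 was taken from multiplexed Cell Titer-Blue.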

[2] = tested on: HCV genotype 1b (Con1) replicon in HUH-7 cells; test: HCV replicon luciferase reporter assay, genotype 1b; format: cell-based; details: Hepatitis C virus, Huh-7, 72 h, HCV genotype 1b replicon luciferase, 3 days incubation
How it was run: as §1

C[C@H]1CC/C=C\[C@@H]2C[C@@]2(C(=O)NS(=O)(=O)C2CC2)NC(=O)[C@@H]2C[C@@H](Oc3nccc4c5c(ccc34)N(C)CCO5)CN2C(=O)[C@@H](NC(=O)OC(C)(C)C(F)(F)F)[C@H](C)C1 [Compound 5277, 1,1,1-trifluoro-2-methylpropan-2-yl((2R,6S,7R,9S,13aS,14aR,16aS,Z)-14a-((cyclopropylsulfonyl)carbamoyl)-7,9-dimethyl-2-((4-methyl-3,4-dihydro-2H-[1,4]oxazino[2,3-f]isoquinolin-7-yl)oxy)-5,16-dioxo-1,2,3,5,6,7,8,9,10,11,13a,14,14a,15,16,16a-hexadecahydrocyclopropa[e]pyrrolo[1,2-a][1,4]diazacyclopentadecin-6-yl)carbamate]
EC50 ([1]; read-out: LE_1a (EC50, range)): < 5.46 nM
EC50 ([2]; read-out: LE_1b (EC50, range)): < 5.46 nM

C[C@@H]1CC/C=C\[C@@H]2C[C@@]2(C(=O)NS(=O)(=O)C2CC2)NC(=O)[C@@H]2C[C@@H](Oc3nccc4c5c(ccc34)N(C)CCO5)CN2C(=O)[C@@H](NC(=O)OC(C)(C)C(F)(F)F)[C@H](C)C1 [Compound 5278, 1,1,1-trifluoro-2-methylpropan-2-yl((2R,6S,7R,9R,13aS,14aR,16aS,Z)-14a-((cyclopropylsulfonyl)carbamoyl)-7,9-dimethyl-2-((4-methyl-3,4-dihydro-2H-[1,4]oxazino[2,3-f]isoquinolin-7-yl)oxy)-5,16-dioxo-1,2,3,5,6,7,8,9,10,11,13a,14,14a,15,16,16a-hexadecahydrocyclopropa[e]pyrrolo[1,2-a][1,4]diazacyclopentadecin-6-yl)carbamate]
EC50 ([1]; read-out: LE_1a (EC50, range)): < 5.46 nM
EC50 ([2]; read-out: LE_1b (EC50, range)): < 5.46 nM

[2H]C([2H])([2H])C(OC(=O)N[C@@H]1C(=O)N2C[C@H](Oc3nccc4c5c(ccc34)N(C)CCO5)C[C@H]2C(=O)N[C@]2(C(=O)NS(=O)(=O)C3CC3)C[C@H]2/C=C\CC[C@H](C)C[C@H]1C)(C([2H])([2H])[2H])C(F)(F)F [Compound 5279, 1,1,1,3,3,3-hexadeutero-2-(trifluoromethyl)propan-2-yl((2R,6S,7R,9S,13aS,14aR,16aS,Z)-14a-((cyclopropylsulfonyl)carbamoyl)-7,9-dimethyl-2-((4-methyl-3,4-dihydro-2H-[1,4]oxazino[2,3-f]isoquinolin-7-yl)oxy)-5,16-dioxo-1,2,3,5,6,7,8,9,10,11,13a,14,14a,15,16,16a-hexadecahydrocyclopropa[e]pyrrolo[1,2-a][1,4]diazacyclopentadecin-6-yl)carbamate]
EC50 ([1]; read-out: LE_1a (EC50, range)): 4.82 to 103 nM
EC50 ([2]; read-out: LE_1b (EC50, range)): 4.82 to 103 nM

[2H]C([2H])([2H])C(OC(=O)N[C@@H]1C(=O)N2C[C@H](Oc3nccc4c5c(ccc34)N(C)CCO5)C[C@H]2C(=O)N[C@]2(C(=O)NS(=O)(=O)C3CC3)C[C@H]2/C=C\CC[C@@H](C)C[C@H]1C)(C([2H])([2H])[2H])C(F)(F)F [Compound 5280, 1,1,1,3,3,3-hexadeutero-2-(trifluoromethyl)propan-2-yl((2R,6S,7R,9R,13aS,14aR,16aS,Z)-14a-((cyclopropylsulfonyl)carbamoyl)-7,9-dimethyl-2-((4-methyl-3,4-dihydro-2H-[1,4]oxazino[2,3-f]isoquinolin-7-yl)oxy)-5,16-dioxo-1,2,3,5,6,7,8,9,10,11,13a,14,14a,15,16,16a-hexadecahydrocyclopropa[e]pyrrolo[1,2-a][1,4]diazacyclopentadecin-6-yl)carbamate]
EC50 ([1]; read-out: LE_1a (EC50, range)): < 5.46 nM
EC50 ([2]; read-out: LE_1b (EC50, range)): < 5.46 nM

C[C@H]1CC/C=C\[C@@H]2C[C@@]2(C(=O)NS(=O)(=O)C2CC2)NC(=O)[C@@H]2C[C@@H](Oc3nccc4c5c(ccc34)N(C)CCO5)CN2C(=O)[C@@H](NC(=O)OC(C)(C)C(C)(F)F)[C@H](C)C1 [Compound 5281, 3,3-difluoro-2-methylbutan-2-yl((2R,6S,7R,9S,13aS,14aR,16aS,Z)-14a-((cyclopropylsulfonyl)carbamoyl)-7,9-dimethyl-2-((4-methyl-3,4-dihydro-2H-[1,4]oxazino[2,3-f]isoquinolin-7-yl)oxy)-5,16-dioxo-1,2,3,5,6,7,8,9,10,11,13a,14,14a,15,16,16a-hexadecahydrocyclopropa[e]pyrrolo[1,2-a][1,4]diazacyclopentadecin-6-yl)carbamate]
EC50 ([1]; read-out: LE_1a (EC50, range)): < 5.46 nM
EC50 ([2]; read-out: LE_1b (EC50, range)): < 5.46 nM

C[C@@H]1CC/C=C\[C@@H]2C[C@@]2(C(=O)NS(=O)(=O)C2CC2)NC(=O)[C@@H]2C[C@@H](Oc3nccc4c5c(ccc34)N(C)CCO5)CN2C(=O)[C@@H](NC(=O)OC(C)(C)C(C)(F)F)[C@H](C)C1 [Compound 5282, 3,3-difluoro-2-methylbutan-2-yl((2R,6S,7R,9R,13aS,14aR,16aS,Z)-14a-((cyclopropylsulfonyl)carbamoyl)-7,9-dimethyl-2-((4-methyl-3,4-dihydro-2H-[1,4]oxazino[2,3-f]isoquinolin-7-yl)oxy)-5,16-dioxo-1,2,3,5,6,7,8,9,10,11,13a,14,14a,15,16,16a-hexadecahydrocyclopropa[e]pyrrolo[1,2-a][1,4]diazacyclopentadecin-6-yl)carbamate]
EC50 ([1]; read-out: LE_1a (EC50, range)): < 5.46 nM
EC50 ([2]; read-out: LE_1b (EC50, range)): < 5.46 nM

C[C@H]1CC/C=C\[C@@H]2C[C@@]2(C(=O)NS(=O)(=O)C2CC2)NC(=O)[C@@H]2C[C@@H](Oc3nccc4c5c(ccc34)N(C)CCO5)CN2C(=O)[C@@H](NC(=O)NC(C)(C)C)[C@H](C)C1 [Compound 5283, (2R,6S,7R,9S,13aS,14aR,16aS,Z)-6-(3-(tert-butyl)ureido)-N-(cyclopropylsulfonyl)-7,9-dimethyl-2-((4-methyl-3,4-dihydro-2H-[1,4]oxazino[2,3-f]isoquinolin-7-yl)oxy)-5,16-dioxo-1,2,3,5,6,7,8,9,10,11,13a,14,14a,15,16,16a-hexadecahydrocyclopropa[e]pyrrolo[1,2-a][1,4]diazacyclopentadecine-14a-carboxamide]
EC50 ([1]; read-out: LE_1a (EC50)): 4.82 nM
EC50 ([1]; read-out: LE_1a (EC50, range)): < 5.46 nM
EC50 ([2]; read-out: LE_1b (EC50)): 3.12 nM
EC50 ([2]; read-out: LE_1b (EC50, range)): < 5.46 nM

C[C@@H]1CC/C=C\[C@@H]2C[C@@]2(C(=O)NS(=O)(=O)C2CC2)NC(=O)[C@@H]2C[C@@H](Oc3nccc4c5c(ccc34)N(C)CCO5)CN2C(=O)[C@@H](NC(=O)NC(C)(C)C)[C@H](C)C1 [Compound 5284, (2R,6S,7R,9R,13aS,14aR,16aS,Z)-6-(3-(tert-butyl)ureido)-N-(cyclopropylsulfonyl)-7,9-dimethyl-2-((4-methyl-3,4-dihydro-2H-[1,4]oxazino[2,3-f]isoquinolin-7-yl)oxy)-5,16-dioxo-1,2,3,5,6,7,8,9,10,11,13a,14,14a,15,16,16a-hexadecahydrocyclopropa[e]pyrrolo[1,2-a][1,4]diazacyclopentadecine-14a-carboxamide]
EC50 ([1]; read-out: LE_1a (EC50, range)): < 5.46 nM
EC50 ([2]; read-out: LE_1b (EC50, range)): < 5.46 nM

[2H]C([2H])([2H])C(C)(OC(=O)N[C@@H]1C(=O)N2C[C@H](Oc3nccc4c5c(ccc34)N(C)CCO5)C[C@H]2C(=O)N[C@]2(C(=O)NS(=O)(=O)C3CC3)C[C@H]2/C=C\CC[C@H](C)C[C@H]1C)C([2H])([2H])[2H] [Compound 5285, 1,1,1,3,3,3-hexadeutero-2-methylpropan-2-yl((2R,6S,7R,9S,13aS,14aR,16aS,Z)-14a-((cyclopropylsulfonyl)carbamoyl)-7,9-dimethyl-2-((4-methyl-3,4-dihydro-2H-[1,4]oxazino[2,3-f]isoquinolin-7-yl)oxy)-5,16-dioxo-1,2,3,5,6,7,8,9,10,11,13a,14,14a,15,16,16a-hexadecahydrocyclopropa[e]pyrrolo[1,2-a][1,4]diazacyclopentadecin-6-yl)carbamate]
EC50 ([1]; read-out: LE_1a (EC50, range)): 4.82 to 103 nM
EC50 ([2]; read-out: LE_1b (EC50, range)): < 5.46 nM

[2H]C([2H])([2H])C(C)(OC(=O)N[C@@H]1C(=O)N2C[C@H](Oc3nccc4c5c(ccc34)N(C)CCO5)C[C@H]2C(=O)N[C@]2(C(=O)NS(=O)(=O)C3CC3)C[C@H]2/C=C\CC[C@@H](C)C[C@H]1C)C([2H])([2H])[2H] [Compound 5286, 1,1,1,3,3,3-hexadeutero-2-methylpropan-2-yl((2R,6S,7R,9R,13aS,14aR,16aS,Z)-14a-((cyclopropylsulfonyl)carbamoyl)-7,9-dimethyl-2-((4-methyl-3,4-dihydro-2H-[1,4]oxazino[2,3-f]isoquinolin-7-yl)oxy)-5,16-dioxo-1,2,3,5,6,7,8,9,10,11,13a,14,14a,15,16,16a-hexadecahydrocyclopropa[e]pyrrolo[1,2-a][1,4]diazacyclopentadecin-6-yl)carbamate]
EC50 ([1]; read-out: LE_1a (EC50, range)): < 5.46 nM
EC50 ([2]; read-out: LE_1b (EC50, range)): < 5.46 nM

[2H]C([2H])([2H])C(OC(=O)N[C@@H]1C(=O)N2C[C@H](Oc3nccc4c5c(ccc34)N(C)CCO5)C[C@H]2C(=O)N[C@]2(C(=O)NS(=O)(=O)C3CC3)C[C@H]2/C=C\CC[C@H](C)C[C@H]1C)(C([2H])([2H])[2H])C([2H])([2H])[2H] [Compound 5287, 1,1,1,3,3,3-hexadeutero-2-(trideuteromethyl)propan-2-yl((2R,6S,7R,9S,13aS,14aR,16aS,Z)-14a-((cyclopropylsulfonyl)carbamoyl)-7,9-dimethyl-2-((4-methyl-3,4-dihydro-2H-[1,4]oxazino[2,3-f]isoquinolin-7-yl)oxy)-5,16-dioxo-1,2,3,5,6,7,8,9,10,11,13a,14,14a,15,16,16a-hexadecahydrocyclopropa[e]pyrrolo[1,2-a][1,4]diazacyclopentadecin-6-yl)carbamate]
EC50 ([1]; read-out: LE_1a (EC50, range)): < 5.46 nM
EC50 ([2]; read-out: LE_1b (EC50, range)): < 5.46 nM
